In US8501759B2, “Use of fibrates” (Fournier Laboratories Ireland Limited, priority 2009, dated 2013):

Tests used:
[1] = 160 mg tablet administered with food; cited from earlier work
[2] = test system: patients with sleep apnea syndrome; test: Safety (adverse events, safety laboratory, vital signs)
[3] = test system: patients with sleep apnea syndrome; test: Epworth Sleepiness Scale (ESS); format: in vivo, human; settings: fenofibrate group, at baseline and at end of treatment; global score 0 to 24
Text: (§1) Variables assessed as complementary analyses: cumulated duration of apnea, mean duration of apnea, duration of the longest apnea, number of non cortical micro-awakening indicators related to respiratory events/hour, number of non cortical micro-awakening indicators related to respiratory events, oxygen saturation in blood measured by pulse oximetry (SpO2) in wake state, mean SpO2 on sleep recording, minimum value of SpO2, percentage of time spent with SpO2<80%, percentage of time spent with SpO2<85%, number of tachycardia, mean duration of tachycardia, number of bradycardia, mean duration of bradycardia, mean pulse rate, standard deviation pulse rate, minimum pulse rate, maximum pulse rate, decrease in daytime sleepiness assessed by the ESS, vigilance tests (reflexive visually guided saccades, antisaccades and sustained attention test).
This scale is the most widely index used to measure sleep apnea subjectively. It is a self-administered questionnaire that asks patients their likelihood of falling asleep in 8 situations ranked from 0 (no chance of dozing), 1 (slight chance of dozing), 2 (moderate chance of dozing) to 3 (high chance of dozing). The numbers are then added together to obtain a global score between 0 and 24. A value of 10 or below is considered normal.

[4] = test system: patients with sleep apnea syndrome; test: Sustained attention test; settings: end of treatment (V3)
[5] = test system: patients with sleep apnea syndrome; test: Overnight sleep study: apnea/hypopnea recording (CID 102) in the 1-month placebo-controlled study; format: in vivo, human
Text: This study comprised 2 phases: • a run-in period of 1 to 5 weeks, on usual diet, • a treatment period of at least 4 weeks (40 days maximum).
(§2) Primary variables: number of obstructive apneas, of central apneas, of mixed apneas, total number of apneas, index of apnea per sleep hour, total number of hypopneas, index of hypopnea per sleep hour, index of apnea/hypopnea per sleep hour, total number of desaturations per sleep hour (with a variation of at least 3-4%), and percentage of time spent with SpO2<90%.
as §1
Throughout the night, respiration was monitored by a sound pressure transducer placed on the suprasternal notch facing the trachea or thoracic strain gauges (model CID 102) (Van Surell C, Lemaigre D, Leroy M, Foucher A, Hagenmuller M P, Raffestin B. Evaluation of an ambulatory device, CID 102, in the diagnosis of obstructive sleep apnea syndrome. Eur Respir J. 1995; 8(5):795-800).
Apnea is defined as an absence of inspiratory flow for at least 10 seconds.
Hypopnea is defined as a 50% to 80% reduction in airflow combined with 3-4% oxygen desaturations.
Sleep apneas are classified as obstructive or central.
Central apneas are defined as total absence of inspiratory flow and chest/abdominal movement during the period of absence of inspiration flow.
Obstructive sleep apneas are defined by a decrease in airflow of more than 80% in the presence of paradoxical movements of the ribcage and abdomen. Similar to AHI, the obstructive and central apneas were based on definitions that require events to be associated with 3-4% desaturations.

[6] = test system: patients with sleep apnea syndrome; test: Overnight sleep study: pulse oximetry (SpO2, desaturations); format: in vivo, human
Text: as §2, §1
Desaturation episodes were the markers of respiratory impairment. All-night recordings of arterial oxygen saturation were obtained using a cardio-respiratory pulse oximeter attached to the finger (SpO2).
Severity of obstructive sleep apnea was measured by the number of falls in SpO2 of more than 3-4% per hour of sleep. The equipment automatically selected the desaturation threshold (3 or 4%) according to the baseline SpO2 value. To further define the severity of OSA, the lowest SpO2 point and the percentage of time spent with SpO2<90% was determined.

[7] = test system: patients with sleep apnea syndrome; test: Laboratory efficacy variables (lipids, glucose, fibrinogen, insulin); format: in vivo, human
Description: Secondary variables: % change from baseline (V2) in fasting and post-prandial TG, total cholesterol (TC), high-density lipoprotein cholesterol (HDL-C), fasting plasma glucose (FPG), fibrinogen and insulin.
TC, TG, HDL-C, glucose, fibrinogen and insulin were measured at inclusion and during the 2 hospital admissions before a lipid rich breakfast. Insulin was also measured before the lipid rich breakfast, each morning following the sleep study.
Post-prandial TG were measured 4 hours after a lipid rich breakfast.

[8] = fenofibrate group, treatment period
[9] = ANCOVA on Log-transformed V3 values, relative difference
[10] = end of treatment (V3), ANCOVA on non-transformed data
[11] = fenofibrate 145 mg group, end of treatment (V3)
[12] = end of treatment (V3), ANCOVA on Log-transformed data, relative difference
[13] = end of treatment (V3), ANCOVA on non-transformed data, absolute difference

## CC(C)OC(=O)C(C)(C)Oc1ccc(C(=O)c2ccc(Cl)cc2)cc1 [Fenofibrate, fenofibrate]
[1]
  increase of exposure to fenofibric acid with food compared to fasting conditions: 35%
[2]; 4-week treatment, 145 mg once daily
  tolerability: well tolerated
[2]; either treatment group
  changes in mean values of pulse rate, DBP or SBP between baseline and end of treatment: no meaningful changes
[2]; end of treatment
  other safety biological variables (ALT, AST, CK), fenofibrate vs placebo: did not differ between the 2 groups
[2]; fenofibrate group
  Median % change at end of treatment from baseline in RBC: −2.7%
  Median % change at end of treatment from baseline in WBC: −11.6%
  Median % change at end of treatment from baseline in hematocrit: −3.2%
  Median % change at end of treatment from baseline in hemoglobin: −3.8%
[2]; [8]
  AEs reported (kinds): bloating (n=1), rash (n=1), allergic rhinitis (n=1), metabolic syndrome (SAE, n=1), type 2 diabetes (n=1), and cystitis (n=1)
  number of AEs reported: 6
  number of patients with AEs: 3
[2]; fenofibrate group, hospitalized for assessment of metabolic syndrome, not related to study treatment
  number of SAE reported during the treatment period: 1
[2]; fenofibrate group, p=0.007 vs placebo
  Median % change at end of treatment from baseline in platelets: +4.7%
[2]; fenofibrate group, p=0.015 vs placebo
  Median % change at end of treatment from baseline in creatinine: +5.9%
[2]; in vivo
  mean values of body weight and BMI at end of treatment compared to baseline: remained roughly unchanged
[2]; treatment period
  AEs considered as related to study treatment: None
[3]
  median of the ESS: 8.5
[4]; ANCOVA on Log-transformed data, relative difference
  Maximum latency all sarters, Fenofibrate-Placebo Estimate: 7%
[4]; ANCOVA on non-transformed data, absolute difference
  Mean latency all sarter, Fenofibrate-Placebo Estimate: 3.6 ms
[4]; fenofibrate 145 mg group
  Maximum latency all sarters, End (V3) (median): 750.0 ms
  Minimum latency all sarters, End (V3) (median): 295.0 ms
  Percent false responses all sarters, End (V3) (median): 1.1
  Percent omissions all sarters, End (V3) (median): 0.0
  Standard Deviation latency all sarters, End (V3) (median): 98.0 ms
[4]; fenofibrate 145 mg group, mean of the 5 tests
  Mean latency all sarter, End (V3) (median): 409.7 ms
[5]; [9]
  Number of central apneas, Fenofibrate-Placebo at end of treatment, Estimate: −55%
  Number of hypopneas, Fenofibrate-Placebo at end of treatment, Estimate: −46%
  Number of mixed apneas, Fenofibrate-Placebo at end of treatment, Estimate: −25%
  Number of obstructive apneas, Fenofibrate-Placebo at end of treatment, Estimate: −44%
[5]; ANCOVA on Log-transformed V3 values, relative difference, minus = improvement
  Number of apneas, Fenofibrate-Placebo at end of treatment, Estimate: −35%
[5]; end of treatment (V3), ANCOVA on Log-transformed data
  Cumulated duration of apnea, Fenofibrate-Placebo Estimate: −31%
[5]; [10]
  Number of non cortical micro-awakening, Fenofibrate-Placebo Estimate: −75.7
[5]; [11]
  Cumulated duration of apnea, End (V3) (median): 4.5 min
  Duration of the longest apnea, End (V3) (median): 23.5 s
  Mean duration of apnea, End (V3) (median): 13.5 s
  Number of central apneas, End (V3) (median): 1.0
  Number of hypopneas, End (V3) (median): 63.0
  Number of mixed apneas, End (V3) (median): 1.0
  Number of non cortical micro-awakening, End (V3) (median): 128.0
  Number of obstructive apneas, End (V3) (median): 15.0
[5]; fenofibrate 145 mg group, end of treatment (V3), total number during sleep recording
  Number of apneas, End (V3) (median): 20.5
[5]; fenofibrate 145 mg group, end of treatment (V3), indicators related to respiratory events
  Non cortical micro-awakening per hour, End (V3) (median): 18.0
[6]; [9]
  Number of desaturations, Fenofibrate-Placebo at end of treatment, Estimate: −23%
[6]; [10]
  Mean of SPO2 on recording, Fenofibrate-Placebo Estimate: 1.1%
  Minimum value of SpO2, Fenofibrate-Placebo Estimate: 0.4%
[6]; [11]
  Mean of SPO2 on recording, End (V3) (median): 94.0%
  Minimum value of SpO2, End (V3) (median): 82.0%
  Number of desaturations, End (V3) (median): 130.0
  Percentage of time with SpO2 < 90%, End (V3) (median): 3.5%
  Percentage time spent with SpO2 < 80%, End (V3) (median): 0.0%
  Percentage time spent with SpO2 < 85%, End (V3) (median): 0.0%
  SpO2 in wake state, End (V3) (median): 95.0%
[7]; end of treatment
  effect on fasting plasma glucose (FPG): no effect
[7]; [12]
  HDL-Cholesterol, Fenofibrate-Placebo Estimate: 2%
  Post-Prandial Triglycerides, Fenofibrate-Placebo Estimate: −26%
[7]; [13]
  Fasting Plasma Glucose, Fenofibrate-Placebo Estimate: 0.2 mmol/L
  Fibrinogen, Fenofibrate-Placebo Estimate: -1.7 µmol/L
  Insulin, Fenofibrate-Placebo Estimate: 12.1 pmol/L
  Total Cholesterol, Fenofibrate-Placebo Estimate: -0.8 mmol/L
[7]; [11]
  Fasting Plasma Glucose, End (V3) (median): 5.45 mmol/L
  Fasting Triglycerides, End (V3) (median): 2.00 mmol/L
  Fibrinogen, End (V3) (median): 8.82 µmol/L
  Insulin, End (V3) (median): 94.4 pmol/L
  Total Cholesterol, End (V3) (median): 4.58 mmol/L
[7]; fenofibrate 145 mg group, end of treatment (V3), 4 hours after a lipid rich breakfast
  Post-Prandial Triglycerides, End (V3) (median): 3.27 mmol/L
